pIC50: −log10 of the molar value. Where two headings read alike, the source gives them in different places. Each block holds one compound with its values, some of them ahead of it.
Legend:
[1] = molecular target: glutathione S-transferase P1-1 (Homo sapiens (Human), UniProt P09211); assay: GSTP1-1 enzyme inhibition assay (CDNB/GSH, 340 nm); type: biochemical; conditions: 1 mM CDNB, 1 mM GSH, pH 6.5; compared with curcumin
Method: Kinetic analysis assays were conducted. […] GSTP1-1 activity was measured at pH 6.5 in 1 ml volumes of 20 mM potassium phosphate buffer containing 100 mM NaCl, 1 mM CDNB and 1 mM GSH. […] (Perkin/Elmer Lambda 2S spectrophotometer). These activities were plotted as percent of control (GSTP1-1 activity without inhibitors). Kinetic analysis (dissociation constants) of inhibitors was determined by linear regression analysis of the Dixon, plots. […] Ki's were calculated utilizing SigmaPlot's Enzyme Kinetics Module™ (Chicago, Ill., USA). […]
These activities were plotted as percent of control (GSTP1-1 activity without inhibitors).

AP-1 = AP-1 luciferase reporter cellular assay (293/AP1-luc, PMA-stimulated); type: cell-based, human; conditions: for activity in the AP-1 cellular assay (screen): 15 μM, compared with curcumin; for pIC50: Homo sapiens, inhibition of PMA-induced AP-1 activation, 293/AP1-luc cells, Table 10, read-out: AP-1 IC50
Method: This cell line is obtained by co-transfection of pAP1-luc and pTK-hyg containing plasmids followed by the addition of hygromycin (200 μg/ml) to maintain cell selection.
After 24 hr, the cells had reached approximately 60% confluency. […] Plate wells were gently washed with PBS, pH 7.4, and lysed with passive lysis buffer (1×, 100 μl, Promega). The subsequent chemiluminescent lysates were analyzed with the Luciferase Assay System (Promega) utilizing a TD-20/20 luminometer. The relative light units (photons) were determined by the addition of firefly luciferase substrate (75 μl) to cell lysate (10 μl). The light units were then normalized to the amount of protein in the well (mg/ml) with BCA™ Protein Assay Kit (Pierce) and standardized to percent of control (PMA).
(§1) This cell line is stably transfected with a luciferase reporter controlled by an AP-1 dependent promoter. The cell is stimulated with phorbol ester which activates AP-1. AP-1 then binds to one of three promoter regions on the cells DNA leading to the production of a luciferase enzyme. Luciferin is added to the cell lysates and the luciferase enzyme catalyzes a cleavage of luciferin leading to the emission of light.

[2] = Total Radical-trapping Anti-oxidant Parameter assay (TRAP assay); conditions: 10 μM in ethanol; compared with curcumin
Method: This assay is also known as the Total radical-trapping anti-oxidant parameter assay (TRAP assay). For the TRAP assay (Re et al., Free Rad. Biol. […] The turquoise colored reaction was allowed to stabilize for 5 min and the absorbance monitored on a Perkin Elmer UV/Vis Lambda 2S. […] The following FIGS. 2A-2C) show the analogs active in the TRAP assay.

NF-κB = NF-κB luciferase reporter cellular assay (293T/NF-κB-luc, TNFα-stimulated); type: cell-based, human; conditions: for inhibition of the activation of NF-κB by TNFα (screen): 10 μM, compared with curcumin; for pIC50: Homo sapiens, HEK-293T, inhibition of TNFα-induced NF-κB activation
Method: The cell line is derived from human 293T embryonic kidney cells expressing the large T antigen containing a chromosomal integration of a luciferase reporter construct regulated by 6 copies of the NF-κB response element (Panomics, Inc.). This stable clonal cell line is obtained by co-transfection of pNF-κB-luc and pTK-hyg containing plasmids followed by the addition of hygromycin (200 μg/ml) to maintain cell selection.
The cell line was grown in a humidified atmosphere at 37° C. in 5% CO2/95% air and maintained in Dulbecco's Modified Eagle's Medium (DMEM-high glucose containing 4 mM glutamine) containing fetal bovine serum (FBS, 10%), sodium pyruvate (1 mM), penicillin (100 units/ml), streptomycin (100 μg/ml) and hygromycin (100 μg/m) to maintain cell selection (Gibco/Invitrogen).
The 293T/NF-κB-luc cells were re-plated 24 hr prior to treatment, into 24-well cell culture plates in media without hygromycin, to prevent it from interfering with the assay. The cells were then allowed to grow and attach, to the wells, for 24 hr in a humidified atmosphere at 37° C. in 5% CO2/95% air. […] The cells then were placed again in a humidified atmosphere at 37° C. in 5% CO2/95% air for 7 hr. Plate wells were gently washed with PBS, pH 7.4, and lysed with passive lysis buffer (1×, 100 μl, Promega). The subsequent chemiluminescent lysates were analyzed with the Luciferase Assay System (Promega) utilizing a TD-20/20 luminometer. The relative light units (photons) were determined by the addition of firefly luciferase substrate (75 μl) to cell lysate (10 μl). The light units were then normalized to the amount of protein in the well (mg/ml) with BCA™ Protein Assay Kit (Pierce) and standardized to percent of control (TNFα).
as §1, with “This assay utilized a commercially available cell line (Panomics 293T-luc cellular assay) developed for screening inhibitors of NF-κB. This” for “This”, “NF-κB” for “AP-1”, “tumor necrosis factor alpha (TNFα)” for “phorbol ester”, “NF-κB. NF-κB” for “AP-1. AP-1”, “six” for “three”, “cell's” for “cells”
This cell line was developed by Panomics for screening potential inhibitors of NF-κB. Cells are stimulated with TNF-α to express luciferase, whose activity is monitored in a chemiluminometer.
An NF-κB reporter stable cell line from human 293T embryonic kidney cells (293T/NFκB-luc) (Panomics) was grown in a humidified atmosphere at 37° C. in 5% CO2/95% air. The cells were maintained in Dulbecco's Modified Eagle's Medium (DMEM—high glucose containing 4 mM glutamine) supplemented with 10% fetal bovine serum (FBS), 1 mM sodium pyruvate, 100 units/ml penicillin, 100 μg/m streptomycin and 100 μg/ml hygromycin (Gibco/Invitrogen, Carlsbad, Calif.)) to maintain cell selection. One day prior to treatment, the 293T/NFκB-luc cells were plated into 24-well cell culture plates (Costar) at approximately 70% confluency in the above media without hygromycin. The following day cells were fed fresh media 1 hour prior to treatment. […] The cells were placed again in a humidified atmosphere at 37° C. in 5% CO2/95% air for 7 hours. Plate wells were gently washed with phosphate buffered saline, pH 7.4, and lysed with 1× passive lysis buffer (Promega). The subsequent lysates were analyzed with the Luciferase Assay System (Promega) utilizing a TD-20/20 luminometer (Turner Designs). The firefly luciferase relative light units were normalized to protein (mg/ml) with BCATM Protein Assay Kit (Pierce) and standardized to TNF-α control.

[3] = Ferric Reducing/Anti-oxidant Power assay (FRAP assay); conditions: 10 μM in ethanol; compared with curcumin
Method: Anti-oxidant activity was also measured in the Ferric reducing/anti-oxidant power assay (FRAP assay) in which the analogs are reacted with a ferric tripyridyltriazine complex. For the FRAP assay (Benzie et al., Meth. Enzymol. 1999, 299, 15-27), the ferric complex was prepared at room temperature by reaction of ferric chloride (16.7 mM) and 2,4,6-tripyridyl-s-triazine (8.33 mM) in acetate buffer (0.25 M) to pH 3.6. The FRAP reagent was used immediately after preparation. […] The reaction was mixed by vortexing, allowed to stabilize for 5 min and the absorbance recorded on a Perkin Elmer UV/Vis Lambda 2S. […] The synthetic analog of α-tocopherol (vitamin E), Trolox, was used as a reference standard (10 μM in ethanol).
The second assay used, the FRAP assay, determines the analogs abilities to reduce a Fe(III) tripyridyltriazine complex to a Fe(II) tripyridyltriazine complex. The following FIGS. 3A-3C) show analogs active in the FRAP assay.

Aβ oligomers and fibrils = Aβ oligomers and fibrils (Homo sapiens (Human), UniProt P05067); conditions: cited from earlier work
[4] = Reactivity toward L-cysteine as nucleophile (absorbance 425 nm); type: physicochemical; conditions: 1 mM L-cysteine in sodium phosphate buffer, pH 7; read-out: t1/2 of absorbance quenching by L-cysteine
Method: Natural log values were determined based on 1st order kinetics.
Weber et al., (2005) Bioorg Med Chem 13, 3811-3820. These groups potentially serve as Michael acceptors which are chemically reactive and can form undesirable covalent modifications with biomolecules. Michael acceptors are generally thought to be poor drug compounds because of their high reactivity toward nucleophilies.
These groups potentially serve as Michael acceptors which are a chemically reactive species that can form undesirable covalent modifications with binding targets. […] Michael acceptors are generally thought to be poor drug compounds because of their high reactivity toward nucleophiles. […] In addition, at or below neutral pH, primary amino groups are predominantly in their protonated form and therefore weak nucleophiles that are unlikely to react to any significant extent with curcumin.

glutathione S-transferase P1-1, sequence (P09211 2-210): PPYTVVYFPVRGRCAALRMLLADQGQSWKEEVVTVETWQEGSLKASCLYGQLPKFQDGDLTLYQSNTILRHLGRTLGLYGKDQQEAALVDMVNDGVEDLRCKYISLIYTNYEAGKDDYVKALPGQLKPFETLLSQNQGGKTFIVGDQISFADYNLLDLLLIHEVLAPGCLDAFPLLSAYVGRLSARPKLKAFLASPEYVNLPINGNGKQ
Aβ oligomers and fibrils, sequence (P05067 672-711): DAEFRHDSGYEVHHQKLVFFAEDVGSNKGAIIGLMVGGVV

SMILES: COc1ccccc1/C=C/C(=O)/C=C(O)/C=C/c1ccccc1OC [3c]
activity in the GSTP1-1 screening assay [1]: more active than curcumin

SMILES: Cc1ccc(/C=C/C(=O)/C=C/c2ccc(C)cc2)cc1 [20aa]
activity in the GSTP1-1 screening assay [1]: better inhibitory activity than curcumin

SMILES: Cc1cccc(/C=C/C(=O)/C=C/c2cccc(C)c2)c1 [20ab]
activity in the GSTP1-1 screening assay [1]: better inhibitory activity than curcumin

SMILES: O=C(/C=C/c1ccccc1)/C=C/c1ccccc1 [20b]
activity in the GSTP1-1 screening assay [1]: better inhibitory activity than curcumin

SMILES: O=C(/C=C/c1cccc(O)c1)/C=C/c1cccc(O)c1 [20p]
activity in the GSTP1-1 screening assay [1]: better inhibitory activity than curcumin

SMILES: O=C(/C=C/c1ccc(Cl)cc1)/C=C/c1ccc(Cl)cc1 [20x]
activity in the GSTP1-1 screening assay [1]: better inhibitory activity than curcumin

SMILES: O=C(/C=C/c1cccc(Cl)c1)/C=C/c1cccc(Cl)c1 [20y]
activity in the GSTP1-1 screening assay [1]: better inhibitory activity than curcumin

SMILES: O=C(/C=C/c1ccccc1Cl)/C=C/c1ccccc1Cl [20z]
activity in the GSTP1-1 screening assay [1]: better inhibitory activity than curcumin

SMILES: COc1cc(/C=C/C(=O)c2ccc(O)c(OC)c2)ccc1O [45a]
activity in the TRAP assay [2]: more active than curcumin
inhibition of the activation of NF-κB by TNFα (screen) (NF-κB): more active than curcumin
activity in the FRAP assay [3]: active
activity in the AP-1 cellular assay (screen) (AP-1): most active

SMILES: COc1cc(/C=C/C(=O)/C=C(O)/C=C/c2ccc(O)c(OC)c2)ccc1O [analog 3a, 1,7-Bis(4-hydroxy-3-methoxyphenyl)-1,6-heptadiene-3,5-dione]
IC50 for disaggregation of preformed fibrils (Aβ oligomers and fibrils; in vitro): 1.0 µM
IC50 for fibril inhibition (Aβ oligomers and fibrils; in vitro): 0.8 µM
IC50 for Aβ oligomerization reported by Yang, et al. (Aβ oligomers and fibrils; non-biotinylated Aβ(1-40)): ~1 µM
half-life at 20 μM [4]: 7.2 min

SMILES: O=C(/C=C/c1ccncc1)/C=C/c1ccncc1 [compound 29]
inhibition of the activation of NF-κB by TNFα (screen) (NF-κB): more active than curcumin
activity in the GSTP1-1 screening assay [1]: better inhibitory activity than curcumin
activity in the AP-1 cellular assay (screen) (AP-1): more active than curcumin
pIC50 (AP-1): 5.09

SMILES: O=C(/C=C/c1cccnc1)/C=C/c1cccnc1 [compound 31]
inhibition of the activation of NF-κB by TNFα (screen) (NF-κB): more active than curcumin
pIC50 (NF-κB; 293T/NF-κB-luc cells, Table 5, read-out: IC50): 5.47
pIC50 (NF-κB; Table 10, read-out: NF-κB IC50): 5.47
activity in the GSTP1-1 screening assay [1]: better inhibitory activity than curcumin
activity in the AP-1 cellular assay (screen) (AP-1): more active than curcumin
pIC50 (AP-1): 5.39

The next lines start with the values.

activity in the GSTP1-1 screening assay [1]: more active than curcumin
SMILES: O=C(/C=C(O)/C=C/c1ccccc1)/C=C/c1ccccc1 [3b]

activity in the GSTP1-1 screening assay [1]: more active than curcumin
SMILES: CC(C(=O)C=Cc1ccccc1)=C(O)C=Cc1ccccc1 [6b]

activity in the GSTP1-1 screening assay [1]: more active than curcumin
activity in the AP-1 cellular assay (screen) (AP-1): active
SMILES: O=C(/C=C/c1ccccc1)/C(Cc1ccccc1)=C(O)/C=C/c1ccccc1 [9b]

activity in the GSTP1-1 screening assay [1]: more active than curcumin
SMILES: O=C(/C=C/c1ccccc1)C(Cc1ccccc1)(Cc1ccccc1)C(=O)/C=C/c1ccccc1 [12b]

activity in the GSTP1-1 screening assay [1]: better inhibitory activity than curcumin
SMILES: O=C(/C=C/c1ccc(O)cc1)/C=C/c1ccc(O)cc1 [20f]

From US9187397B2 (STC.UNM, priority 2004, dated 2015)
